Measured values: article PMC10319141, “Imidazoquinolines with improved pharmacokinetic properties induce a high IFNα to TNFα ratio in vitro and in vivo” (Frontiers in Immunology, 2023)
Where two headings read alike, the source gives them in different places.

Experiments:
human TLR8 = target: T1, human TLR8 (Homo sapiens, UniProt Q9NR97); assay: HEK-Blue hTLR8 SEAP reporter assay; assay type: cell-based; conditions: for TLR8 activity rel. to assay max: average maximal SEAP secretion relative to maximum secretion observed in the assay; for SEAP secretion from HEK-Blue hTLR-8: in words
T1 construct: host or cells: HEK blue hTLR8 reporter cells
T1 sequence (Q9NR97 27-1041): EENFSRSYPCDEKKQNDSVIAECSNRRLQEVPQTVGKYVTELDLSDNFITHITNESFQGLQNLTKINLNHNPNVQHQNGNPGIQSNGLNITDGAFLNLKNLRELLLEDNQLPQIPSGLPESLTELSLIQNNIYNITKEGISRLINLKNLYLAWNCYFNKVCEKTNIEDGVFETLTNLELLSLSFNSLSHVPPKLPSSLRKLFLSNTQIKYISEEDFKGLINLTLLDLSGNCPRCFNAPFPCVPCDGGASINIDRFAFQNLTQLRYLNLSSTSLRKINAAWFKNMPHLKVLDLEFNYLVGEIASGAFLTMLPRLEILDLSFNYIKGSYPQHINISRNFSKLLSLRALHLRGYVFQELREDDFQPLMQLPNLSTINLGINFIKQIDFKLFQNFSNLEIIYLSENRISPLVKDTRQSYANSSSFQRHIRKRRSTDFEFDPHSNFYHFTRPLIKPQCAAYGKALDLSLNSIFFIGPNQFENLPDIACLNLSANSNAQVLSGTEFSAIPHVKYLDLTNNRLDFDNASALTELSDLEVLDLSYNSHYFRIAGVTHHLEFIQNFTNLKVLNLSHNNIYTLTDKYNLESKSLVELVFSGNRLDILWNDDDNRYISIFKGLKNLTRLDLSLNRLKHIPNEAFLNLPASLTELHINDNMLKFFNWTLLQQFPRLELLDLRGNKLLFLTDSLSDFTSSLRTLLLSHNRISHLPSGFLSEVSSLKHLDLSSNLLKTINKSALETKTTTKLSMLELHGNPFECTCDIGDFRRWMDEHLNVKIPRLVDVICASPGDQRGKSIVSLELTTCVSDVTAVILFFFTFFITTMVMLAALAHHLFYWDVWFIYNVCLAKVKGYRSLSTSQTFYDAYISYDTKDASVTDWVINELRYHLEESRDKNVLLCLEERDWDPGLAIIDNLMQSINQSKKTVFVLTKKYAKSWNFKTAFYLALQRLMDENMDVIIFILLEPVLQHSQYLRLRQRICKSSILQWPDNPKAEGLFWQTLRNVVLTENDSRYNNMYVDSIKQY
Procedure: (§1) HEK blue hTLR7 or hTLR8 reporter cells (Invivogen) were cultivated in DMEM High Glucose (Biowest) according to the manufacturer’s instructions. Cells were treated with test compounds and controls at various concentrations in serum-free DMEM and incubated at 37°C, 5% CO2 for 24 h before supernatants were collected.
(§2) Relative secreted embryonic alkaline phosphatase (SEAP) activity in the supernatants was determined by quantification of para-Nitrophenyl Phosphate (pNPP)-turnover. Supernatants were diluted 10-fold in a solution containing 1 mM MgCl2, 1 M diethanolamine and 1 mg/mL pNPP and incubated at RT for 15 min before the reaction was stopped by the addition of 0.25 volumes of 1 M NaOH. Absorbance was measured at 405 nm on a Versamax microplate reader (Molecular Devices) and normalized to the mean of >5 solvent controls.
(§3) To obtain reliable estimates, replicate measurements of a minimum of 2 experiments were normalized to the maximal SEAP activity of a compound in a given experiment and pooled before fitting a non-linear function to the data.

human TLR7 = target: T2, human TLR7 (Homo sapiens, UniProt Q9NYK1); assay: HEK-Blue hTLR7 SEAP reporter assay; assay type: cell-based; conditions: for TLR7 activity rel. to assay max: average maximal SEAP secretion relative to maximum secretion observed in the assay
T2 construct: host or cells: HEK blue hTLR7 reporter cells
T2 sequence (Q9NYK1 27-1049): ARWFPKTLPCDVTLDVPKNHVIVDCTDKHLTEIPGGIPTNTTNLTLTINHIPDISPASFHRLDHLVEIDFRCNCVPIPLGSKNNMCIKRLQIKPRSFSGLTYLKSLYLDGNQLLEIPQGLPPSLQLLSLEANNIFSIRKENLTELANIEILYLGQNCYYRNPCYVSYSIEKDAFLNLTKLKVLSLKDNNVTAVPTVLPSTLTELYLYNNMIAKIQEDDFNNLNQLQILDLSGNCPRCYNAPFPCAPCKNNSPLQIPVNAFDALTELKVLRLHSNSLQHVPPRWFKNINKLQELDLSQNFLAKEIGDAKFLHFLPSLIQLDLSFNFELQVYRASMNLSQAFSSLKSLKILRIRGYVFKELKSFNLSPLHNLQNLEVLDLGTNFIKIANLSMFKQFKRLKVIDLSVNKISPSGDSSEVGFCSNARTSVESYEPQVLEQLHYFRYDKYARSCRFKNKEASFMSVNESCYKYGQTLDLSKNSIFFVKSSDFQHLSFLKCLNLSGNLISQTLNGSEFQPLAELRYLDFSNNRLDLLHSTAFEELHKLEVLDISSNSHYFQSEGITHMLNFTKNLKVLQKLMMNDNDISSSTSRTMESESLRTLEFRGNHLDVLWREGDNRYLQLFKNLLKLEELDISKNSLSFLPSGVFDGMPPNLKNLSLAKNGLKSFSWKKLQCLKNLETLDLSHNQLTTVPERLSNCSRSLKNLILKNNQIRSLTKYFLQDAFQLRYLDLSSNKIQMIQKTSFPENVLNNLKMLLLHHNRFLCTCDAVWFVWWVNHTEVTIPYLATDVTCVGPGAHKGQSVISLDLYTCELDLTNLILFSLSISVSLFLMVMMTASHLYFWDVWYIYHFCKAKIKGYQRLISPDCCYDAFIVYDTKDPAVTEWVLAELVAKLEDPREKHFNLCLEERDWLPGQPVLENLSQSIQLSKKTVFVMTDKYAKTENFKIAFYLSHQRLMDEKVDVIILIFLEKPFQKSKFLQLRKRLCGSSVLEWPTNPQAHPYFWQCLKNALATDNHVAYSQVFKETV
Procedure: as §1, §2, §3

undifferentiated U937 = assay: Helix NIR dye exclusion in undifferentiated U937; assay type: cell-based; conditions: 25 µM; in words
Procedure: Exclusion of Helix NIR (BioLegend) was used to assay membrane integrity following compound treatment. Culture conditions for U937 were as described above, undifferentiated cells were incubated with varying concentrations of compound or with solvent. Helix NIR was added to the cells to a final concentration of 10 nM, cells were incubated at RT for 10 min and acquired on a ZE5 Cell Analyzer (Bio-Rad). The cutoff for positive staining was set to approximately the 99th percentile of unstained cells.

PMA-differentiated U937 = assay: MTT viability assay in PMA-differentiated U937; assay type: cell-based; conditions: 25 µM; PMA-differentiated U937, 2 days
[1] = Compound concentrations in organs and plasma after three consecutive daily s.c. treatments (Figure 6B, S7); assay type: in vivo, mice; conditions: for compound plasma level at peak: s.c.; for concentration at 4 h / concentration at 28 h / concentration at 52 h: mouse, sc, repeated daily s.c. treatment; for concentration at 4 h: after 4 h; for concentration at 28 h: after 28 h; for concentration at 52 h: after 52 h
Procedure: All samples were extracted with 3 or 6 volumes acetonitrile containing terbuthylazine as an internal standard (ACN) relative to either sample weight or volume. Liquid samples (plasma, culture medium, cell suspensions in stability experiments) were diluted in either 3 (culture medium, cell suspensions) or 6 (plasma) volumes ACN, pellet and blood samples were extracted by addition of ACN followed by sonication for 5 min. Organ samples were digested with 0.5 µg/mg Proteinase K (Genaxxon) for 1 h at 50°C before being homogenized using a Fastprep FP-24 5G instrument (MP-Biomedicals). Homogenates were diluted with 6 volumes ACN and homogenized again. All extracts were cleared by centrifugation at ~20.000xg for 10 min at 4°C.
Quantification of analytes was performed on an Agilent 1260/1290 Infinity system fitted with an Agilent C18 Poroshell 120 column (4.6 x 50 mm, 2.7 µm) coupled to a triple quadrupole Sciex API 4000 MS/MS detector. The mobile phase was composed of water containing 0.1% formic acid (eluent A) and acetonitrile containing 0.1% formic acid (eluent B). Gradient used was: 5% B for 0.5 min, to 100% B in 4.5 min, 100% B for 2 min, to 5% B in 0.5 min, 5% for 2.5 min. MS detection parameters are listed in SI Table S1 .
Formulation. Test compounds were prepared for application in either 1% Tween 80, 9% PEG400 in ultrapure water (Biowest) (i.v., i.p., p.o. application) or 5 mM citric acid in 0.9% saline (Braun) (subcutaneous application). If compounds were administered subcutaneously, injections were carried out into the neck crease.
Collection of Samples. Mice were bled from the tail vein at various timepoints. Heparin (Sigma) or K2-EDTA (Sigma) was added to blood samples to a final […] concentration of 10-15 Unit or 5 mM. Plasma was generated by centrifugation at 6800xg for 8 min at 4°C and stored at -80°C until analyzed by ELISA or CBA. Animals were sacrificed after the indicated time points by CO2 inhalation. Heart blood and organs for compound quantification by HPLC-MS/MS were collected post mortem and stored at –20°C until extracted as described above.
Dotted lines indicate the time of repeated compound applications. (A) Cytokine levels in pooled tail plasma of mice from individual treatment groups (n=3 per pool and time point), error bars represent range of two replicate measurements. (B) Peripheral blood was collected from the tail vein before, 15, 30 60, 120, 240, 360 and 480 min after s.c. treatment. Compound concentration in peripheral plasma was analyzed by HPLC-MS/MS, data presented as mean ± SD.
Samples were collected 4 h, 28 h and 52 h after s.c. treatment. Skin samples were sampled
at time points 4 h and 52 h. Compound concentrations were analyzed by HPLC-MS/MS, data

[2] = 95% CI, HEK-blue human TLR8, 24 h, read-out: TLR8 EC50
[3] = Figure S4, axis c/[µM], pooled from 3 experiments, read-out: compound-specific EC50 in dose response plot, HEK Blue hTLR8
[4] = 95% CI, HEK-blue human TLR7, 24 h, read-out: TLR7 EC50
[5] = Figure S3, axis c/[µM], pooled from 3 experiments, read-out: compound-specific EC50 in dose response plot, HEK Blue hTLR7
[6] = brain, read-out: concentration in brain
[7] = liver, read-out: concentration in liver

Row | maximal induction in HEK-Blue hTLR-8 (lower than that of RSQ) (human TLR8) [%] | EC50 (human TLR8; [2]) [µM] | EC50 (human TLR8; [3]) [µM] | TLR8 activity rel. to assay max (human TLR8) | EC50 (human TLR7; [4]) [µM] | EC50 (human TLR7; [5]) [µM] | TLR7 activity rel. to assay max (human TLR7) | effect on membrane integrity, dye exclusion assay in U937 (undifferentiated U937) | SEAP secretion from HEK-Blue hTLR-8 (human TLR8) | Average maximal activity in HEK-Blue hTLR7 relative to RSQ (human TLR7) [%] | compound plasma level at peak ([1]; day 1, 60 min after application) [nM] | compound plasma level at peak ([1]; day 2, 60 min after application) [nM] | compound plasma level at peak ([1]; day 3, 60 min after application) [nM] | concentration at 4 h [1, 6] [nM] | concentration at 28 h [1, 6] [nM] | concentration at 52 h [1, 6] [nM] | concentration at 4 h [1, 7] [nM] | concentration at 28 h [1, 7] [nM] | concentration at 52 h [1, 7] [nM] | SMILES | MTT U937, percent MTT conversion relative to solvent controls (PMA-differentiated U937) [%]
1 | 36 | 8.2 to 8.5 | 8.36 | 36% ± 4% | 1 to 1.5 | 1.24 | 62% ± 9% | – | – | – | – | – | – | – | – | – | – | – | – | CCCCc1nc2c(N)nc3ccccc3c2n1CCOCCOCCN [A3] | –
2 | – | – | – | 4% ± 2% | 0.39 to 0.69 | 0.527 | 55% ± 7% | negative effects on membrane integrity | close to baseline | 55 | – | – | – | – | – | – | – | – | – | CCCCc1nc2c(N)nc3ccccc3c2n1CCC1CCN(C(=O)OC(C)(C)C)CC1 [A1-boc] | 50
3 | – | – | – | 4% ± 1% | 0.23 to 0.47 | – | 86% ± 9% | – | close to baseline | 86 | – | – | – | – | – | – | – | – | – | CCCCc1nc2c(N)nc3ccccc3c2n1CC1CCN(C(=O)OC(C)(C)C)CC1 [A2-boc] | –
4 | 57 | 2.8 to 3.1 | 2.96 | 57% ± 9% | 0.075 to 0.12 | 0.0957 | 81% ± 13% | – | – | 81 | – | – | – | – | – | – | – | – | – | CCCCc1nc2c(N)nc3ccccc3c2n1CC1CCNCC1 [A2] | –
5 | 18 | 11 to 13 | 12.1 | 18% ± 8% | 1.5 to 2.1 | 1.76 | 84% ± 5% | – | – | – | – | – | – | – | – | – | – | – | – | CCCCc1nc2c(N)nc3ccccc3c2n1CCOCCOCCO [A4] | –
6 | – | – | – | – | 5.2 to 8.3 | 6.52 | 35% ± 7% | – | – | – | 796 | 606 | 608 | 32 | 135 | 177 | 630 | 824 | 645 | CC(C)Cn1cnc2c(N)nc3ccccc3c21 [IMQ, Imiquimod] | –
